{"source": "patent US20090291153A1", "about": "“Health food, Method for producing the same and dried Product and Extract” (priority 2004, published 2009)", "key": {"[1]": {"test_system": "AR42J cells (ATCC CRL 1492)", "assay": "Morphological change of AR42J cells as marker of induced differentiation into insulin-producing cells", "format": "cell-based", "conditions": "final concentration 0.1 μg/ml, three days, FIG. 1B", "method": "Thus, it was examined whether an extract of Ervatamia microphylla can induce AR42J cells to differentiate into insulin-producing cells. It should be noted that, since characteristic morphological changes of cells are observed as differentiation into insulin-producing cells is induced, morphological changes in AR42J cell were examined as a marker of differentiation induction in this Example. AR42J cells were cultured in the media prepared by sterilizing Dulbecco modification Eagle' medium (DMEM; Nissui Pharmaceutical Co., Ltd.) by filtration after its pH was adjusted to 7.4 in the presence of 20 mM HEPES-NaOH and adding 0.6 g/l glutamine (Kanto Chemical Co., Inc: Tokyo, Japan), 0.2 g/l kanamycin (Sigma Chemical Science; Sigma: St.Louis, Mo., USA), 100 unit/ml penicillin G (Sigma), 5 mM NaHCO3, and 10% fetal bovine serum (FBS; Sigma).\n500 μl of a suspension of AR42J cells (4.0×10^5 cells/ml per culture medium) was plated into each well of 24-well plastic plates (Corning) at 2×10^5 cells/well and cultured under the conditions of 37° C. and 5% CO2. […]"}, "[2]": {"test_system": "streptozotocin-induced diabetic rats", "assay": "Blood glucose levels of streptozotocin-administered rats", "format": "in vivo, Wistar rats", "conditions": "5 μg/g BW subcutaneously for seven consecutive days from day 1 after streptozotocin 85 μg/g BW i.p.; P<0.05 / P<0.01 vs Control", "method": "Ten 1-day-old Wistar rats (purchased from Japan SLC, Shizuoka, Japan) were intraperitoneally injected with streptozotocin (purchased from Wako Pure Chemical Industries, Ltd., dissolved in […] citrate buffer (pH 4.5)) at 85 μg/g BW per rat. Streptozotocin decreases insulin production by destroying pancreatic cells, thereby inducing diabetes. The day of streptozotocin injection was defined as day 0. Starting from the next day (day 1), five rats were injected subcutaneously with a solution (ethanol) of conophylline at 5 μg/g BW for seven consecutive days and their blood glucose levels were measured at a predetermined time daily. Five rats in the control group received the same volume of solvent (control)."}, "K-ras-NRK cells": {"test_system": "K-ras-NRK cells", "assay": "Morphological change of K-ras-NRK cells", "format": "cell-based", "conditions": "final concentration 0.1 μg/ml, three days, FIG. 4", "text": "Conophylline is known to induce a morphological change of K-ras-NRK cells. Thus, it was examined whether an extract of Ervatamia microphylla leaves induces morphological changes of K-ras-NRK cells. It is also known that leaves of the Malaysian Tabernaemontana contains conophylline (Org. Biomol. Chem. 1: 1292-1297, 2003). Thus, it was examined that whether an extract of leaves of crape jasmine, the Japanese Tabernaemontana divaricata, also induces morphological changes in K-ras-NRK cells. An extract of each plant was prepared, in the same manner as described in Example 1, by extracting the active ingredient contained in the leaves with methanol, then removing solids by suction filtration, followed by concentring and drying, and dissolving the resulting powder into methanol.\n500 μl of a suspension ([…] per culture medium (DMEM containing 5% FBS, 0.6 g/l glutamine, 0.2 g/l kanamycin, 2.25 g/l NaHCO3)) of K-Ras-NRK cells was added to each well of 24-well plastic plates at 2.0×10^4 cells/well, and the plates were incubated at 37° C. under 5% CO2. The next day, conophylline (final concentration: 0.1 μg/ml), an extract of Ervatamia microphylla leaves (final concentration: 10 μg/ml), and an extract of crape jasmine leaves (final concentration: 10 μg/ml) were added to the culture medium, which was incubated at 37° C. under the condition of 5% CO2 for three days. […]"}, "[3]": {"test_system": "pancreatic acinar carcinoma AR42J-B13 cells", "conditions": "cited from earlier work"}}, "data": [{"smiles": "CC[C@@]12CC(C(=O)OC)=C3Nc4cc5c(cc4[C@@]34CCN(C[C@H]3O[C@H]31)[C@@H]24)[C@@H]1[C@H](O5)[C@@H](O)[C@@]2(CC)CC(C(=O)OC)=C3Nc4c(cc(O)c(OC)c4OC)[C@@]34CCN1[C@@H]24", "note": "[conophylline]", "values": [{"measurement": "morphological change of AR42J cells (induction of differentiation into insulin-producing cells)", "setting": "[1]", "result": "undergo a morphological change from small spherical cells to flat cells partly with processes"}, {"measurement": "blood glucose level compared with the control", "setting": "[2]", "result": "apparent decrease in blood glucose levels"}, {"measurement": "morphological change of K-ras-NRK cells", "setting": "K-ras-NRK cells", "result": "undergo a morphological change"}, {"measurement": "induction of differentiation into insulin-producing cells", "setting": "[3]; Abstracts of the 45th Annual Meeting of the Japan Diabetes Society, 2002", "result": "induces differentiation of pancreatic acinar carcinoma AR42J-B13 cells into insulin-producing cells"}, {"measurement": "insulin release from the induced insulin-producing cells", "setting": "[3]; same literature condition", "result": "do not release insulin from the cells"}]}]}
